Patent publication US3948899A, “α-Cyanobenzylpiperazines and a process for producing the same” (Fuji Chemical Industry Co., Ltd., priority 1973, dated 1976)
Where a name gives a salt, the structure may show the parent alone.

What was measured:
mongrel adult dogs [1] = test: Effects on heart rate (thoractomized anesthetized dogs, i.v.); type: in vivo, dog; conditions: i.v. 2.0 mg/Kg, imm.
Experimental: (§1) All experiments were conducted on male and female thoractomized mongrel adult dogs weighing about 10 Kg under anesthesia with pentobarbital sodium.
(§2) Arterial blood pressure was measured by pressure transducer (Nippon Koden MPU-0.5) connected with the cannula inserted from exposed carotid artery into aorta. Aortic blood flow was determined by means of electromagnetic flow meter (Nippon Koden MF-5) mounted at an origin of aorta. Coronary sinus out flow and coronary sinus oxygen tension were assessed by means of electromagnetic flow meter (Nippon Koden MF-5) and Po2 Macro electrode (Beckmann Moder 160-C), respectively, using Morawitz cannulization technique. Heart rate was measured by cardiotachometer (Nippon Koden RT-2) synchronized with systolic blood pressure of aorta.

mongrel adult dogs [2] = test: Effects on aortic blood flow (thoractomized anesthetized dogs, i.v.); type: in vivo, dog
Experimental: as §1, §2

mongrel adult dogs [3] = test: Effects on arterial mean blood pressure (thoractomized anesthetized dogs, i.v.); type: in vivo, dog
Experimental: as §1, §2

[4] = prior art; cited from earlier work
mongrel adult dogs [5] = test: Effects on the work done by the left ventricle (thoractomized anesthetized dogs, i.v.); type: in vivo, dog
Experimental: as §1, §2
The work done by the left ventricle is calculated according to the following equation: […]

**Q.** Which “Changes(%) of basal values, heart rate” value (mongrel adult dogs [1]) does the source give for `COc1ccc(CN2CCNCC2)c(OC)c1OC` [Vastarel F, 2,3,4 -trimethoxybenzylpiperazine dihydrochloride] here?
**A.** +5.5%

**Q.** And the “Changes(%) of basal values, aortic blood flow” value (shortened to “Changes(%) … aortic blood flow”) (mongrel adult dogs [2]; i.v. 0.2 mg/Kg, 1 min)?
**A.** 0%

**Q.** And the “Changes(%) … aortic blood flow” value (mongrel adult dogs [2]; i.v. 0.2 mg/Kg, 5 min)?
**A.** 0%

**Q.** And the “Changes(%) … aortic blood flow” value (mongrel adult dogs [2]; i.v. 0.2 mg/Kg, 10 min)?
**A.** 0%

**Q.** What about the “Changes(%) … aortic blood flow” value (mongrel adult dogs [2]; i.v. 0.2 mg/Kg, 15 min) of the same molecule?
**A.** 0%

**Q.** And the “Changes(%) … aortic blood flow” value (mongrel adult dogs [2]; i.v. 0.2 mg/Kg, 20 min)?
**A.** 0%

**Q.** And the “Changes(%) … aortic blood flow” value (mongrel adult dogs [2]; i.v. 0.2 mg/Kg, 25 min)?
**A.** 0%

**Q.** And the “Changes(%) … aortic blood flow” value (mongrel adult dogs [2]; i.v. 0.2 mg/Kg, 30 min)?
**A.** 0%

**Q.** What about the “Changes(%) … aortic blood flow” value (mongrel adult dogs [2]; i.v. 0.2 mg/Kg, imm.) of the same molecule?
**A.** 0%

**Q.** And the “Changes(%) … aortic blood flow” value (mongrel adult dogs [2]; i.v. 0.6 mg/Kg, 1 min)?
**A.** +0.5%

**Q.** What about the “Changes(%) … aortic blood flow” value (mongrel adult dogs [2]; i.v. 0.6 mg/Kg, 5 min) of the same molecule?
**A.** 0%

**Q.** And the “Changes(%) … aortic blood flow” value (mongrel adult dogs [2]; i.v. 0.6 mg/Kg, 10 min)?
**A.** -1.0%

**Q.** And the “Changes(%) … aortic blood flow” value (mongrel adult dogs [2]; i.v. 0.6 mg/Kg, 15 min)?
**A.** -1.0%

**Q.** And the “Changes(%) … aortic blood flow” value (mongrel adult dogs [2]; i.v. 0.6 mg/Kg, 20 min)?
**A.** -1.0%

**Q.** And the “Changes(%) … aortic blood flow” value (mongrel adult dogs [2]; i.v. 0.6 mg/Kg, 25 min)?
**A.** -1.5%

**Q.** What about the “Changes(%) … aortic blood flow” value (mongrel adult dogs [2]; i.v. 0.6 mg/Kg, 30 min) of the same molecule?
**A.** 0%

**Q.** What about the “Changes(%) … aortic blood flow” value (mongrel adult dogs [2]; i.v. 0.6 mg/Kg, imm.) of the same molecule?
**A.** +1.5%

**Q.** And the “Changes(%) … aortic blood flow” value (mongrel adult dogs [2]; i.v. 2.0 mg/Kg, 1 min)?
**A.** 0%

**Q.** What about the “Changes(%) … aortic blood flow” value (mongrel adult dogs [2]; i.v. 2.0 mg/Kg, 5 min) of the same molecule?
**A.** +11.0%

**Q.** And the “Changes(%) … aortic blood flow” value (mongrel adult dogs [2]; i.v. 2.0 mg/Kg, 10 min)?
**A.** +23.0%

**Q.** What about the “Changes(%) … aortic blood flow” value (mongrel adult dogs [2]; i.v. 2.0 mg/Kg, 15 min) of the same molecule?
**A.** +10.0%

**Q.** And the “Changes(%) … aortic blood flow” value (mongrel adult dogs [2]; i.v. 2.0 mg/Kg, 20 min)?
**A.** +5.0%

**Q.** And the “Changes(%) … aortic blood flow” value (mongrel adult dogs [2]; i.v. 2.0 mg/Kg, 25 min)?
**A.** +6.0%

**Q.** And the “Changes(%) … aortic blood flow” value (mongrel adult dogs [2]; i.v. 2.0 mg/Kg, 30 min)?
**A.** +5.0%

**Q.** And the “Changes(%) … aortic blood flow” value (mongrel adult dogs [2]; i.v. 2.0 mg/Kg, imm.)?
**A.** -78.0%

**Q.** What about the “Changes(%) of basal values, arterial mean blood pressure” value (mongrel adult dogs [3]; i.v. 0.2 mg/Kg, 1 min) of the same molecule?
**A.** -1.0%

**Q.** What about the “Changes(%) of basal values, arterial mean blood pressure” value (mongrel adult dogs [3]; i.v. 0.2 mg/Kg, 5 min) of the same molecule?
**A.** -2.0%

**Q.** What about the “Changes(%) of basal values, arterial mean blood pressure” value (mongrel adult dogs [3]; i.v. 0.2 mg/Kg, 10 min) of the same molecule?
**A.** -1.5%

**Q.** What about the “Changes(%) of basal values, arterial mean blood pressure” value (mongrel adult dogs [3]; i.v. 0.2 mg/Kg, 15 min) of the same molecule?
**A.** -1.0%

**Q.** And the “Changes(%) of basal values, arterial mean blood pressure” value (mongrel adult dogs [3]; i.v. 0.2 mg/Kg, 20 min)?
**A.** 0%

**Q.** And the “Changes(%) of basal values, arterial mean blood pressure” value (mongrel adult dogs [3]; i.v. 0.2 mg/Kg, 25 min)?
**A.** 0%

**Q.** What about the “Changes(%) of basal values, arterial mean blood pressure” value (mongrel adult dogs [3]; i.v. 0.2 mg/Kg, 30 min) of the same molecule?
**A.** 0%

**Q.** What about the “Changes(%) of basal values, arterial mean blood pressure” value (mongrel adult dogs [3]; i.v. 0.2 mg/Kg, imm.) of the same molecule?
**A.** -3.0%

**Q.** What about the “Changes(%) of basal values, arterial mean blood pressure” value (mongrel adult dogs [3]; i.v. 0.6 mg/Kg, 1 min) of the same molecule?
**A.** -2.0%

**Q.** What about the “Changes(%) of basal values, arterial mean blood pressure” value (mongrel adult dogs [3]; i.v. 0.6 mg/Kg, 5 min) of the same molecule?
**A.** -1.5%

**Q.** What about the “Changes(%) of basal values, arterial mean blood pressure” value (mongrel adult dogs [3]; i.v. 0.6 mg/Kg, 10 min) of the same molecule?
**A.** -1.0%

**Q.** What about the “Changes(%) of basal values, arterial mean blood pressure” value (mongrel adult dogs [3]; i.v. 0.6 mg/Kg, 15 min) of the same molecule?
**A.** -1.0%

**Q.** And the “Changes(%) of basal values, arterial mean blood pressure” value (mongrel adult dogs [3]; i.v. 0.6 mg/Kg, 20 min)?
**A.** 0%

**Q.** And the “Changes(%) of basal values, arterial mean blood pressure” value (mongrel adult dogs [3]; i.v. 0.6 mg/Kg, 25 min)?
**A.** 0%

**Q.** And the “Changes(%) of basal values, arterial mean blood pressure” value (mongrel adult dogs [3]; i.v. 0.6 mg/Kg, 30 min)?
**A.** 0%

**Q.** What about the “Changes(%) of basal values, arterial mean blood pressure” value (mongrel adult dogs [3]; i.v. 0.6 mg/Kg, imm.) of the same molecule?
**A.** -6.0%

**Q.** And the “Changes(%) of basal values, arterial mean blood pressure” value (mongrel adult dogs [3]; i.v. 2.0 mg/Kg, 1 min)?
**A.** -35.0%

**Q.** And the “Changes(%) of basal values, arterial mean blood pressure” value (mongrel adult dogs [3]; i.v. 2.0 mg/Kg, 5 min)?
**A.** -2.0%

**Q.** And the “Changes(%) of basal values, arterial mean blood pressure” value (mongrel adult dogs [3]; i.v. 2.0 mg/Kg, 10 min)?
**A.** -1.0%

**Q.** What about the “Changes(%) of basal values, arterial mean blood pressure” value (mongrel adult dogs [3]; i.v. 2.0 mg/Kg, 15 min) of the same molecule?
**A.** 0%

**Q.** And the “Changes(%) of basal values, arterial mean blood pressure” value (mongrel adult dogs [3]; i.v. 2.0 mg/Kg, 20 min)?
**A.** -1.0%

**Q.** And the “Changes(%) of basal values, arterial mean blood pressure” value (mongrel adult dogs [3]; i.v. 2.0 mg/Kg, 25 min)?
**A.** -2.0%

**Q.** What about the “Changes(%) of basal values, arterial mean blood pressure” value (mongrel adult dogs [3]; i.v. 2.0 mg/Kg, 30 min) of the same molecule?
**A.** -2.0%

**Q.** And the “Changes(%) of basal values, arterial mean blood pressure” value (mongrel adult dogs [3]; i.v. 2.0 mg/Kg, imm.)?
**A.** -55.0%

**Q.** And the “Effect on the heart, disadvantage (in words)” value [4]?
**A.** depressant effect on the heart

**Q.** And the “Changes(%) of basal values, work of left ventricle” value (from here on “Changes(%) … of left ventricle”) (mongrel adult dogs [5]; i.v. 0.2 mg/Kg, 1 min)?
**A.** -1.0%

**Q.** And the “Changes(%) … of left ventricle” value (mongrel adult dogs [5]; i.v. 0.2 mg/Kg, 5 min)?
**A.** -2.5%

**Q.** And the “Changes(%) … of left ventricle” value (mongrel adult dogs [5]; i.v. 0.2 mg/Kg, 10 min)?
**A.** -1.5%

**Q.** What about the “Changes(%) … of left ventricle” value (mongrel adult dogs [5]; i.v. 0.2 mg/Kg, 15 min) of the same molecule?
**A.** -1.0%

**Q.** What about the “Changes(%) … of left ventricle” value (mongrel adult dogs [5]; i.v. 0.2 mg/Kg, 20 min) of the same molecule?
**A.** 0%

**Q.** And the “Changes(%) … of left ventricle” value (mongrel adult dogs [5]; i.v. 0.2 mg/Kg, 25 min)?
**A.** 0%

**Q.** And the “Changes(%) … of left ventricle” value (mongrel adult dogs [5]; i.v. 0.2 mg/Kg, 30 min)?
**A.** 0%

**Q.** What about the “Changes(%) … of left ventricle” value (mongrel adult dogs [5]; i.v. 0.2 mg/Kg, imm.) of the same molecule?
**A.** -2.5%

**Q.** And the “Changes(%) … of left ventricle” value (mongrel adult dogs [5]; i.v. 0.6 mg/Kg, 1 min)?
**A.** -2.0%

**Q.** And the “Changes(%) … of left ventricle” value (mongrel adult dogs [5]; i.v. 0.6 mg/Kg, 5 min)?
**A.** -1.5%

**Q.** What about the “Changes(%) … of left ventricle” value (mongrel adult dogs [5]; i.v. 0.6 mg/Kg, 10 min) of the same molecule?
**A.** -2.0%

**Q.** What about the “Changes(%) … of left ventricle” value (mongrel adult dogs [5]; i.v. 0.6 mg/Kg, 15 min) of the same molecule?
**A.** -2.0%

**Q.** What about the “Changes(%) … of left ventricle” value (mongrel adult dogs [5]; i.v. 0.6 mg/Kg, 20 min) of the same molecule?
**A.** -1.0%

**Q.** What about the “Changes(%) … of left ventricle” value (mongrel adult dogs [5]; i.v. 0.6 mg/Kg, 25 min) of the same molecule?
**A.** -1.5%

**Q.** And the “Changes(%) … of left ventricle” value (mongrel adult dogs [5]; i.v. 0.6 mg/Kg, 30 min)?
**A.** 0%

**Q.** What about the “Changes(%) … of left ventricle” value (mongrel adult dogs [5]; i.v. 0.6 mg/Kg, imm.) of the same molecule?
**A.** -4.5%

**Q.** What about the “Changes(%) … of left ventricle” value (mongrel adult dogs [5]; i.v. 2.0 mg/Kg, 1 min) of the same molecule?
**A.** -35.0%

**Q.** What about the “Changes(%) … of left ventricle” value (mongrel adult dogs [5]; i.v. 2.0 mg/Kg, 5 min) of the same molecule?
**A.** +9.0%

**Q.** And the “Changes(%) … of left ventricle” value (mongrel adult dogs [5]; i.v. 2.0 mg/Kg, 10 min)?
**A.** +21.5%

**Q.** And the “Changes(%) … of left ventricle” value (mongrel adult dogs [5]; i.v. 2.0 mg/Kg, 15 min)?
**A.** +10.0%

**Q.** What about the “Changes(%) … of left ventricle” value (mongrel adult dogs [5]; i.v. 2.0 mg/Kg, 20 min) of the same molecule?
**A.** +4.0%

**Q.** And the “Changes(%) … of left ventricle” value (mongrel adult dogs [5]; i.v. 2.0 mg/Kg, 25 min)?
**A.** +3.5%

**Q.** And the “Changes(%) … of left ventricle” value (mongrel adult dogs [5]; i.v. 2.0 mg/Kg, 30 min)?
**A.** +3.0%

**Q.** And the “Changes(%) … of left ventricle” value (mongrel adult dogs [5]; i.v. 2.0 mg/Kg, imm.)?
**A.** -90.0%
